Reference: patent US8492422B2, “Ester pro-drugs of [3-(1-(1H-imidazol-4-yl)ethyl)-2-methylphenyl] methanol for treating skin diseases and conditions” (Allergan, Inc., priority 2010, dated 2013)

Assay: In Vitro Human Skin Permeability Assay (static Franz diffusion cells)
Conditions: in vitro Franz diffusion cell; 0.65% (Compound 2) and 0.55% (Compound 1) (w/w) dose; 48 hour dose exposure; 5 mg formulation/cm^2
Protocol: To assure the integrity of each skin section, its permeability to tritiated water was determined before application of the test products.

Cc1c(COC(=O)C(C)C)cccc1[C@H](C)c1c[nH]cn1 [Compound 1, iso-Butyric acid 3-[(S)-1-(1H-imidazol-4-yl)-ethyl]-2-methyl-benzyl ester]
penetration into and through ex vivo human trunk skin (percutaneous absorption): penetrate into and through ex vivo human trunk skin
